Experimental data published in patent publication US20220257541A1, “Lacosamide for the Treatment of ADD/ADHD” (priority 2019, published 2022).

Assays:
[1] = test system: potassium or calcium currents; conditions: cited from earlier work
GABA transaminase = GABA transaminase (Homo sapiens, UniProt P80404); conditions: cited from earlier work
[2] = test system: children and adolescents with ADHD syndrome; experiment: Case Study 3: STROOP-P test; assay type: in vivo, human
Description: These tests offered an objective element that contributed to the establishment of the diagnosis.
Neuropsychological evaluation was repeated after six months on medication, at the end of the study. These evaluations were guided by trained neuropsychologists. Four different evaluations were conducted: Continuous Performance Test (CPT)1, STROOP-P test, Wisconsin Card sorting Test and the Non Verbal Intelligence Test.
The patients were assessed using the STROOP-P test, which is used to assess the ability to inhibit cognitive interference that occurs when the processing of a specific stimulus feature impedes the simultaneous processing of a second stimulus attribute, well-known as the Stroop Effect.

[3] = test system: children and adolescents with ADHD syndrome; experiment: Case Study 3: Tutors evaluation pre to post treatment (DSM-V questionnaire); assay type: in vivo, human
Description: The Tutors Pre-Post Evaluation (self-administrated) was performed at the end of the study. This assessment required the person responsible for the patient's everyday life and care to evaluate the progression through the period of the study, including intellectual and behavioural changes.
The tutors have evaluated the patients using the DSM-V questionnaire, which is typically used as a standard to classify mental disorders by mental health professionals in the United States.

[4] = test system: children and adolescents with ADHD syndrome; experiment: Case Study 3: 'PASA' clinical questionnaire (Thinking, Mood, Sleep, Alterity); assay type: in vivo, human
Description: This study describes a series of cases of 12 children and adolescents (aged between 7 and 17 year old) treated with lacosamide. The patients were from 3 different orphanages and under the general supervision of a tutor.
We administrated doses adjusted to age and weight of each patient, in line with the therapeutic doses described herein. Specifically, lacosamide was administered to the patients following the approved treatment regimen for lacosamide (Vimpat®) in epileptic children from 4 years of age as per Table 1 above. The patients were at constant supervision of the tutor and other personnel of the orphanages.
After being selected by the tutors, children were evaluated during a clinical consultation carried out in their own institution. Through this consultation, we verified the clinical condition of each child or adolescent, their records and anamnesis, if any. We also filled out the Clinical story forms. At the same time, we performed the first ‘PASA’ Evaluation. The ‘PASA’ Test is a clinical questionnaire that was developed by the inventor of the present application (see FIG. 1 for questionnaire questions). It includes examination of Thinking (“P” for “Pensamiento”), Mood (“A” for “Animo”), Sleep (“S” for “Sueno”) and Alterity (“A” for “Alteridad”).
‘PASA’ Evaluation was repeated every 60 days after initiating the medication. The four editions of this questionnaire were compared and analysed, drawing a close-up portrait of the clinical evolution of these cases.
The overall trend is very favourable in all cases. Patients' symptoms improved in all categories. In this study, the patients were evaluated before treatment with lacosamide (evaluation 1) and every 2 months in the course of the treatment.

[5] = after treatment, ~75% at the beginning

Chain of GABA transaminase (P80404 29-500, species assumed): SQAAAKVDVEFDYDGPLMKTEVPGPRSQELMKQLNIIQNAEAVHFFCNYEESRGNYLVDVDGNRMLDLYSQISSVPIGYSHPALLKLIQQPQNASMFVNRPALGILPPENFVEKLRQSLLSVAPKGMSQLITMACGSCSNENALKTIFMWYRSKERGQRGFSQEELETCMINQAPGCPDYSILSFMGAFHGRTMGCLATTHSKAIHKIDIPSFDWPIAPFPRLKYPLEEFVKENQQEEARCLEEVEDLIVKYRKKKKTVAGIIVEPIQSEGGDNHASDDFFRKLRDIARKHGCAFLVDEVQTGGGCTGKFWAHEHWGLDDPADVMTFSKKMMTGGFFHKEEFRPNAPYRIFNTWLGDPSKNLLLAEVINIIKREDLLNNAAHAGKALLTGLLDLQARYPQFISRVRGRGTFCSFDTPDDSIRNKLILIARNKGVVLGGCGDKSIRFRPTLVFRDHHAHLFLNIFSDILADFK

SMILES: COC[C@@H](NC(C)=O)C(=O)NCc1ccccc1 [lacosamide, (2R)-2-(acetylamino)-N-benzyl-3-methoxypropanamide]
- block of potassium or calcium currents [1]: does not block
- inhibition of GABA transaminase (GABA transaminase): does not inhibit
- ability to inhibit cognitive interference ([2]; measured in both cerebral hemispheres): positive but to a limited extent
- patients with Average result, STROOP-P ([2]; second test, 8.3% in the first evaluation): 25%
- patients with Severe Deterioration, STROOP-P ([2]; second test, 25% initially): 8.3%
- behaviour, tutors' DSM-V questionnaire [3]: significantly improved across all tested elements
- Mood and Sleep symptoms in most patients ([4]; 12 patients, 6 months): complete or nearly complete alleviation of the symptoms
- all tested 'PASA' categories (Sleep Activity, Thoughts, Mood) ([4]; 12 patients, 6 months): positive impact
- patients with depressive unjustified feelings ([4]; after six months of treatment, from 25%): 0%
- patients with irritability ([4]; after treatment, from 33.3%): 16.7%
- patients with cenesthesia [4, 5]: 8.3%
- patients with hyper emotion [4, 5]: 25%
- patients with hypomania [4, 5]: 16.7%
- patients with lethargy [4, 5]: 8.3%
- patients with mood change [4, 5]: 0%
- patients with tiredness [4, 5]: 8.3%
- Trend of Thought: Disordered ([4]; end of study (6 months), 67% of 12 patients before treatment): completely disappeared
- Trend of Thought: Overabundant ([4]; end of study (6 months), 83% of 12 patients before treatment): completely disappeared
- distressing thoughts ([4]; end of study, 17% of patients at the beginning): completely eliminated
- patients with difficulties with falling asleep ([4]; end of study, from 75%): 0%
- patients with sleep interruption ([4]; end of study, from 83%): 8.3%
- patients with sudden off-sense disconnections (spacing out) ([4]; end of study, initially 50%): 33%
- patients with dysphasia (inability of sustaining attention or understanding a long phrase) ([4]; end of study, initially 83%): 42%
- patients with second thoughts disturbing concentration ([4]; end of study, initially 83%): 42%
- patients with cenesthesic presences (sleep) ([4]; end of the trial period, from 75%): 8.3%
- general state after waking up, sleeping without interruptions and ease of sleep ([4]; four evaluations over 6 months): improvement
- realistic dreams ([4]; four evaluations over 6 months): not significantly affected
- patients with blocking thoughts ([4]; in the course of treatment, 50% at the beginning): 25%
- Hypercritical thinking ([4]; over the course of the study): small improvement
- Tachypsychia ([4]; over the course of the study): small improvement
